# According to article PMC8394412, “Identification and Characterization of Cannabidiol as an OX1R Antagonist by Computational and In Vitro Functional Validation” (Biomolecules, 2021):
# Biological target: T1, orexin 1 receptor (OX1R) (Homo sapiens, UniProt O43613)
# T1 construct: gene HCRTR1
# T1 sequence (O43613 1-425): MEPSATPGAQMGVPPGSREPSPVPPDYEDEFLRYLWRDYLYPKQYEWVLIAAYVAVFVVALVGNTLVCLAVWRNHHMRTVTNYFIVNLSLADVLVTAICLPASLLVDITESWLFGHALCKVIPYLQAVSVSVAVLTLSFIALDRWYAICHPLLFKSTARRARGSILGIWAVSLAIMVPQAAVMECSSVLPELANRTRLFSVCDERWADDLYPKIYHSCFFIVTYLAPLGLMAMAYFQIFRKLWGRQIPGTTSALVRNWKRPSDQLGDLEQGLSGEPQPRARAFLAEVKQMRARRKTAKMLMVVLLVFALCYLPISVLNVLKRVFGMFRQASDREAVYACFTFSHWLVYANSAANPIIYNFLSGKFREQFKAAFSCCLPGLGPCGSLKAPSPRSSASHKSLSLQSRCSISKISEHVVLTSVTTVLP
# Experiment: […]orexin-A radioligand displacement on OX1R-CHO membranes; functional Ca2+ antagonism IC50 […]
# Type: binding
structure (smiles),measurement,value
"C=C(C)[C@@H]1CCC(C)=C[C@H]1c1c(O)cc(CCCCC)cc1O [CBD, cannabidiol]",Ki,1580 ± 200 nM
